The source of these data is publication PMC6271231 (Molecules, 2014).

In assay [1] the test system is IL-6 production in H1N1-infected A549 cells. The format is cell-based, human.
Assay [2] deals with MCP-1 production in H1N1-infected A549 cells. It is filed as cell-based, human.
The target in assay [3] is NA of A/Sydney/5/97 (H3N2) (Influenza A virus, UniProt Q9DIC9). Nature of the assay: Neuraminidase inhibition assay (fluorimetric, MUNANA). The format is biochemical, influenza A virus A/Sydney/5/97 (H3N2).
The mark [4] stands for this setting: NA from A/Sydney/5/97 (H3N2), 37 °C, 40 min, pH 6.5, read-out: IC50, inhibition of NA, A/Sydney/5/97(H3N2) (converted).

The structures appear in SMILES notation. “Also recorded” adds a separate entry of the source. Read-outs that look alike come from different tables or passages of the source. Where only a bound is given, the exact number is not on record here.

With `O=C(Oc1cc(O)c2c(c1)OC(c1cc(O)c(O)c(O)c1)C(O)C2)c1cc(O)c(O)c(O)c1` (single isomer, unassigned; (+)) [Compound 3, (+)-3,5,3',4',5'-penta-hydroxyflavan-7-gallate], the “inhibition of IL-6 expression induced by influenza H1N1 virus (in words)” value in assay [1] is reported as “weakest inhibition; also recorded: worst inhibition”. The “inhibition of MCP-1 expression induced by influenza H1N1 virus (in words)” value (from here on “inhibition of MCP-1 expression induced”) in assay [2] is “worst inhibition”. Also, the IC50 in assay [3] (setting [4]) is over 87.3 µM.

For the molecule `O=C(Oc1cc(O)c2c(c1)O[C@H](c1cc(O)c(OC(=O)c3cc(O)c(O)c(O)c3)c(O)c1)CC2)c1cc(O)c(O)c(O)c1` [Compound 4, (−)-7,4'-di-O-galloyltricetiflavan], in assay [3] (setting [4]), the IC50 is over 67.3 µM.

For the molecule `CC(=O)N[C@H]1[C@H]([C@H](O)[C@H](O)CO)OC(C(=O)O)=C[C@@H]1N=C(N)N` [zanamivir, reference compound], in assay [3], the IC50 was 0.000632 µM.

`CC1(C)O[C@@H]2Cc3c(O)cc(OC(=O)c4cc(O)c(O)c(O)c4)cc3O[C@@H]2c2cc(O)c(O)c(O)c21` [Compound 1, (2R,3R)-7-O-galloylplumbocatechin A]: in assay [2], the “inhibition of MCP-1 expression induced” value is given as “inhibit MCP-1 expression best at the lowest concentrated dilution of 3 μg/mL; also recorded: best results”. Further, the IC50 in assay [3] (setting [4]) was 64.7 µM.

For the molecule `O=C(Oc1cc(O)c2c(c1)O[C@H](c1cc(O)c(O)c(O)c1)CC2)c1cc(O)c(O)c(O)c1` [Compound 2, (−)-5,3',4',5'-tetrahydroxyflavan-7-gallate], in assay [1], the “inhibition of IL-6 expression induced by influenza H1N1 virus (in words)” value is “best inhibitory effect”. Further, the “inhibition of MCP-1 expression induced” value in assay [2] is “inhibit MCP-1 expression best at the lowest concentrated dilution of 3 μg/mL”. Also, the IC50 in assay [3] (setting [4]) was over 90.4 µM.
